Several values for one entry are separate records, joined by “and”; a condition that tells them apart may be missing. Equal values may be shown once.
System: ZR-75-1 cells
Test: NanoString human kinome mRNA quantification
Assay type: cell-based
Text: Human mRNAs were hybridised to NanoString human kinome and control code sets, then subjected to quantification using NanoString software. […] To permit data compaction, and simple kinome‐wide comparisons, the fold changes are log2 transformed. […] Cell pellets were resuspended at a concentration of ~6,500 cells/μl in RLT buffer (Qiagen). […] For total copy numbers, triplicate normalised count values were averaged, and to calculate fold induction, means were divided by triplicate mean values from matched DMSO controls. P‐values were calculated using unpaired t‐test (GraphPad Prism software) by employing treated and control count data for each kinase mRNA.

`NC1(c2ccc(-c3nc4ccn5c(=O)[nH]nc5c4cc3-c3ccccc3)cc2)CCC1` [MK-2206] was tested, and the Normalised counts (EGFR mRNA, single replicates) was 75.1 and 79.82 and 79.29, the Average normalised counts (EIF2AK1 mRNA) was 3890.11 and the Normalised counts (EIF2AK1 mRNA, single replicates) was 3762.77 and 3749.38 and 4158.18. The Average normalised counts (EIF2AK2 mRNA) was 387.137, the Normalised counts (EIF2AK2 mRNA, single replicates) was 351.43 and 373.45 and 436.53 and the Average normalised counts (EIF2AK3 mRNA) was 167.45. For the same compound, the Normalised counts (EIF2AK3 mRNA, single replicates) was 158.73 and 166.69 and 176.93, the Average normalised counts (EIF2AK4 mRNA) was 999.56 and the Normalised counts (EIF2AK4 mRNA, single replicates) was 986.79 and 999.81 and 1012.08. For the same compound, the Average normalised counts (EPHA1 mRNA) was 298.103, the Normalised counts (EPHA1 mRNA, single replicates) was 293.25 and 307.43 and 293.63 and the Average normalised counts (EPHA2 mRNA) was 98.1433. The Normalised counts (EPHA2 mRNA, single replicates) was 101.46 and 85.9 and 107.07, the Average normalised counts (EPHA3 mRNA) was 1 and the Normalised counts (EPHA3 mRNA, single replicates) was 1. For the same compound, the Average normalised counts (EPHA4 mRNA) was 54.0467, the Normalised counts (EPHA4 mRNA, single replicates) was 47.83 and 66.78 and 47.53 and the Average normalised counts (EPHA5 mRNA) was 2.657. The Normalised counts (EPHA5 mRNA, single replicates) was 2.39 and 2.5 and 3.08, the Average normalised counts (EPHA6 mRNA) was 46.39 and the Normalised counts (EPHA6 mRNA, single replicates) was 39.65 and 42.46 and 57.06. The Average normalised counts (EPHA7 mRNA) was 9.993, the Normalised counts (EPHA7 mRNA, single replicates) was 14.2 and 10.32 and 5.46 and the Average normalised counts (EPHA8 mRNA) was 2.44. For the same compound, the Normalised counts (EPHA8 mRNA, single replicates) was 4.2 and 1.63 and 1.49, the Average normalised counts (EPHA10 mRNA) was 29.9233 and the Normalised counts (EPHA10 mRNA, single replicates) was 36.93 and 25.95 and 26.89. For the same compound, the Average normalised counts (EPHB1 mRNA) was 2.73, the Normalised counts (EPHB1 mRNA, single replicates) was 4.2 and 2.5 and the Average normalised counts (EPHB2 mRNA) was 16.0233. For the same compound, the Average normalised counts (EPHB3 mRNA) was 206.547, the Average normalised counts (EPHB4 mRNA) was 1166.85 and the Average normalised counts (EPHB6 mRNA) was 2.217. It also gave an Average normalised counts (ERBB2 mRNA) of 3923.04, an Average normalised counts (ERBB3 mRNA) of 1260.11 and an Average normalised counts (ERBB4 mRNA) of 408.193. It also gave an Average normalised counts (ERN1 mRNA) of 386.247, an Average normalised counts (ERN2 mRNA) of 2.483 and an Average normalised counts (FASTK mRNA) of 67.2133. The Average normalised counts (FASTKD1 mRNA) was 614.733, the Average normalised counts (FASTKD2 mRNA) was 563.933 and the Average normalised counts (FASTKD3 mRNA) was 173.083. The Average normalised counts (FASTKD5 mRNA) was 437.597, the Average normalised counts (FER mRNA) was 455.723 and the Average normalised counts (FES mRNA) was 1.427. For the same compound, the Average normalised counts (FGFR1 mRNA) was 1112.53, the Average normalised counts (FGFR2 mRNA) was 189.803 and the Average normalised counts (FGFR3 mRNA) was 1392.79. It also gave an Average normalised counts (FGFR4 mRNA) of 1462.07, an Average normalised counts (FGFRL1 mRNA) of 1225.18 and an Average normalised counts (FGR mRNA) of 1. The “Average normalised counts FLJ25006” value (FLJ25006 mRNA, average of 3 replicates) was 106.973, the “Normalised counts FLJ25006” value (FLJ25006 mRNA, single replicates) was 105.1 and 102.4 and 113.42 and the “Average normalised counts FLT1” value (FLT1 mRNA, average of 3 replicates) was 1. For the same compound, the “Normalised counts FLT1” value (FLT1 mRNA, single replicates) was 1, the “Average normalised counts FLT3” value (FLT3 mRNA, average of 3 replicates) was 149.337 and the “Normalised counts FLT3” value (FLT3 mRNA, single replicates) was 146.91 and 161.48 and 139.62. For the same compound, the “Average normalised counts FLT4” value (FLT4 mRNA, average of 3 replicates) was 1.957, the “Normalised counts FLT4” value (FLT4 mRNA, single replicates) was 1 (2×) and 3.87 and the “Average normalised counts FRK” value (FRK mRNA, average of 3 replicates) was 160.35. For the same compound, the “Normalised counts FRK” value (FRK mRNA, single replicates) was 165.09 and 158.87 and 157.09, the “Average normalised counts FYN” value (FYN mRNA, average of 3 replicates) was 5.563 and the “Normalised counts FYN” value (FYN mRNA, single replicates) was 5.11 and 7.71 and 3.87. For the same compound, the “Average normalised counts GAK” value (GAK mRNA, average of 3 replicates) was 673.637, the “Normalised counts GAK” value (GAK mRNA, single replicates) was 641.39 and 690.54 and 688.98 and the “Average normalised counts GRK1” value (GRK1 mRNA, average of 3 replicates) was 10.12. The “Normalised counts GRK1” value (GRK1 mRNA, single replicates) was 8.75 and 4.24 and 17.37, the “Average normalised counts GRK4” value (GRK4 mRNA, average of 3 replicates) was 59.8967 and the “Normalised counts GRK4” value (GRK4 mRNA, single replicates) was 59.65 and 50.28 and 69.76. The “Normalised counts GRK5” value (GRK5 mRNA, single replicates) was 18.75 and 22.48 and 22.13, the “Average normalised counts GRK7” value (GRK7 mRNA, average of 3 replicates) was 1.957 and the “Normalised counts GRK7” value (GRK7 mRNA, single replicates) was 1 (2×) and 3.87. For the same compound, the “Average normalised counts GSG2” value (GSG2 mRNA, average of 3 replicates) was 390.143, the “Normalised counts GSG2” value (GSG2 mRNA, single replicates) was 395.97 and 394.3 and 380.16 and the “Average normalised counts GSK3A” value (GSK3A mRNA, average of 3 replicates) was 3191.73. The “Normalised counts GSK3A” value (GSK3A mRNA, single replicates) was 3156.49 and 3192.52 and 3226.18, the “Average normalised counts GSK3B” value (GSK3B mRNA, average of 3 replicates) was 4035 and the “Normalised counts GSK3B” value (GSK3B mRNA, single replicates) was 3944.57 and 4049.09 and 4111.34. The “Average normalised counts GUCY2C” value (GUCY2C mRNA, average of 3 replicates) was 1, the “Normalised counts GUCY2C” value (GUCY2C mRNA, single replicates) was 1 and the “Average normalised counts GUCY2D” value (GUCY2D mRNA, average of 3 replicates) was 5.627. For the same compound, the “Normalised counts GUCY2D” value (GUCY2D mRNA, single replicates) was 6.02 and 8.58 and 2.28, the “Average normalised counts GUCY2F” value (GUCY2F mRNA, average of 3 replicates) was 1.693 and the “Normalised counts GUCY2F” value (GUCY2F mRNA, single replicates) was 1 (2×) and 3.08. The “Average normalised counts HCK” value (HCK mRNA, average of 3 replicates) was 1.533, the “Normalised counts HCK” value (HCK mRNA, single replicates) was 1.48 and 1.63 and 1.49 and the “Average normalised counts HIPK1” value (HIPK1 mRNA, average of 3 replicates) was 582.127.

Reference: PMC5007552, “The hVps34‐SGK3 pathway alleviates sustained PI3K/Akt inhibition by stimulating mTORC1 and tumour growth” (The EMBO Journal, 2016)
